Laboratory results taken from patent US11202836B2, “PSMA targeted conjugate compounds and uses thereof” (CASE WESTERN RESERVE UNIVERSITY, priority 2018, dated 2021).
“And” between values parts separate entries of the source, which are not always exact repeats. Equal values may be shown once. *1 amine or outer side, *2 acyl side, *3 side chain or, on linkers, in order; H or OH if unused. Where a SMILES comes first, the peptide text is derived from it. Bridges are numbered along the chain shown (N, C = ends). Roman numbers before positions name the chains, in order. [ ]: non-standard residue; d: D form. The star is where a group is joined. ξ: configuration not given here. X2 = CN1/C(=C/C=C/C=C/C2=[N+](CCCCCC(=O)*)c3ccc4ccccc4c3C2(C)C)C(C)(C)c2c1ccc1ccccc21; Hexanoyl(6-succinimido-3yl) = O=C1CC([*:1])C(=O)N1CCCCCC(=O)[*:2]; X3 = CC[C@H](C)[C@@H]([C@H](CC(=O)[*:2])OC)N(C)[*:1]; Dolaproine = CO[C@@H]([C@@H]1CCCN1)[C@@H](C)C(=O)O; Dil = CC[C@H](C)[C@H](NC)[C@@H](CC(=O)O)OC; PABC = O=C(OCc1ccc(N[*:1])cc1)[*:2]; ξγGlu = O=C(O)C(CCC(=O)[*:2])N[*:1]; X4 = C[C@@H](N*)[C@@H](O)c1ccccc1; X1 = O=C(C1CCC(CN[*:1])CC1)[*:2]; Cit = NC(=O)NCCC[C@H](N)C(=O)O; NMeV = CN[C@H](C(=O)O)C(C)C; ξE = NC(CCC(=O)O)C(=O)O; CO = O=C([*:1])[*:2]; ξK = NCCCCC(N)C(=O)O; Ahx = NCCCCCC(=O)O; ξC = NC(CS)C(=O)O

Experiments:
[1] = Maximum tolerated dose (single i.v. dose); format: in vivo, mice; settings: single dose i.v., tumor-free athymic nude mice, 14 days
Text: Mice were monitored daily for 14 days.

[2] = tested on: heterotopic PC3pip tumors; test: Heterotopic PC3pip tumor survival / antitumor study; format: in vivo; settings: for tumor growth: 160 nmol/kg i.v. every 4 days
Text: Male athymic nude mice were implanted subcutaneously with 1×10^6 of PC3pip cells under the right dorsum of the mice. When tumor size reached approximately 100 mm^3 (tumor volume=Length×width^2/2), mice received drugs through tail vein injection. […] Animals were weighed and tumor size measured every other day for 90 days. Cures were defined as no tumor present at end of the 90-day study. When tumors became too large or animals were moribund they were euthanized. Five mice were used in each group.

[3] = tested on: α-tubulin; test: Immunofluorescence analysis of alpha-tubulin in PC3pip and PC3flu cells; format: cell-based; settings: 5 nM, 24 hours
Procedure: Cells on coverslips at about 70% confluency were incubated with 5 nM of MMAE, PSMA-1-VcMMAE-Cy5.5 or PSMA-1-McMMAE-Cy5.5 for 24 hours. Cells were washed and fixed with 4% paraformaldehyde for 10 minutes, permeabilized with 0.1% Triton™ X-100 for 10 minutes, and blocked with 1% BSA for 1 hour at room temperature. Alpha-tubulin (B5-1-2) Alexa Fluor 488 Mouse Monoclonal Antibody (Invitrogen) was then added at 2 μg/mL in 0.1% BSA and incubated for 3 hours at room temperature. Cells were counterstained with DAPI, mounted with Fluor-Mount aqueous mounting solution, and observed under Leica DM4000B fluorescence microscopy at 40×.

[4] = tested on: PC3pip cells; test: In vitro cytotoxicity assay (CCK-8, 72 h), PSMA-positive cells; format: cell-based
Procedure: Cells (1,000/well) were seeded in 96-well culture plates the day before treatment. Cells were incubated with various concentrations of drugs for 72 hours and cell viability evaluated by CCK-8 (Dojindo). The concentration required to reach 50% of cell proliferation was determined (IC50) by GraphPad Prism 3.0.

[5] = Stability of conjugates incubated in PBS without enzyme (HPLC); format: physicochemical; settings: no enzyme
Procedure: (§1) PSMA-1-VcMMAE-Cy5.5 or PSMA-1-McMMAE-Cy5.5 was added to 500 μL of activated human liver cathepsin B (Anthens Research and Technology) solution (46) to a final concentration of 2 μM and incubated at 37° C. At different time intervals, 40 μL of the solution was taken out into tubes loaded with 1 μL of 1 mM E64 protease inhibitor. The mixture was vortexed and then stored at −80° C. for future HPLC analysis to assess degradation of PSMA-1-VcMMAE-Cy5.5 or PSMA-1-McMMAE-Cy5.5. Studies were performed in triplicate.
To investigate if PSMA-targeted drug conjugates were cleavable by cathepsin B, the two conjugates were incubated with or without the enzyme and chromatographed by HPLC. When the conjugates were incubated with PBS, both PSMA-1-VcMMAE-Cy5.5 and PSMA-1-McMMAE-Cy5.5 were stable (FIG. 11D).

[6] = tested on: metastatic PC3pip model; test: Metastatic PC3pip survival study (intracardiac GFP-PC3pip); format: in vivo, mice; settings: 160 nmol/kg every 4 days, 5 doses
Procedure: Male athymic nude mice were injected into the left ventricle of the heart with 1×10^5 GFP labeled PC3pip cells to generate bone metastasis. One week later mice received 160 nmol/kg PSMA-1-VcMMAE-Cy5.5 or PBS every 4 days with a total of 5 doses and the progression of disease was monitored by GFP imaging. Five mice were used in each group.

[7] = tested on: heterotopic C4-2 tumors; test: Heterotopic C4-2 tumor study; set-up: species or system mice; settings: mouse, in vivo
Text: To show versatility of the antitumor activity of PSMA-1-VcMMAE-Cy5.5, we tested it in mice bearing heterotopic C4-2 tumors, which are androgen-independent prostate cancer cells endogenously expressing PSMA.

[8] = tested on: orthotopic PC3pip tumors; test: Orthotopic PC3pip tumor survival study; format: in vivo, mice
Procedure: Surgical orthotopic tumor implantation was performed as previously reported. Tumor growth/size was monitored using Siemens Acuson […] ultrasound scanner. When the tumors were at the appropriate size (5 mm as measured by ultrasound, approximately 2 weeks) animals were given PSMA-1-VcMMAE, PSMA-1-VcMMAE-Cy5.5, or PBS every four days with a total of 5 doses. Tumors were monitored every other day by ultrasound. Each group had five mice.

[9] = tested on: PC3pip and PC3flu tumors; test: In vivo NIR imaging of mice bearing PC3pip and PC3flu tumors; settings: 40 nmol/kg i.v.
Procedure: Under guidelines of the animal care and use committee at Case Western Reserve University (IACUC #150033) 6 to 8-week old male Balb/cathymic nude mice were implanted subcutaneously with 1×10^6 of PC3flu and PC3pip on the left and right dorsum respectively. Mice received 40 nmol/kg of PSMA-1-VcMMAE-Cy5.5 or PSMA-1-McMMAE-Cy5.5 in PBS via tail vein injection when tumors reached 10 mm in diameter. Fluorescence imaging was performed using the Maestro In Vivo Imaging system (Perkin-Elmer). Multispectral images were unmixed into their component spectra (PSMA probes, autofluorescence, and background) to quantitate the average fluorescence intensity associated with the tumors using regions of interest (ROIs) around the tumors.

[10] = target: T1, human liver cathepsin B (Homo sapiens, UniProt P07858); test: Enzymatic cleavage by cathepsin B (HPLC); format: in vitro ADME; settings: 2 μM conjugate, 37° C.
T1 construct: purchased Anthens Research and Technology; host or cells: human liver (tissue-derived enzyme)
Procedure: as §1

[11] = target: T2, cathepsin B (Homo sapiens, UniProt P07858); test: Enzymatic cleavage by cathepsin B (HPLC); format: in vitro ADME; settings: human, activated human liver cathepsin B solution; 2 μM conjugate, 37° C.; read-out: half-life in the presence of cathepsin B (converted)
T2 construct: purchased Anthens Research and Technology; host or cells: human liver (tissue-derived enzyme)
Procedure: as §1

[12] = target: T3, PSMA (Homo sapiens, UniProt Q04609); test: Competitive binding assay against 3H-ZJ24 on PC3pip cells; settings: 10 nM 3H-ZJ24, read-out: IC50, competition binding to PSMA
T3 construct: expressed in transfected cells; host or cells: PC3pip cells (retrovirally transfected, from Dr. Michel Sadelain, MSKCC)
Procedure: The assay was carried as previously reported by incubation PC3pip cells with different concentrations of drug conjugates in the presence of 10 nM N—[N—[(S)-1,3-dicarboxypropyl]carbamoyl]-S-[^3H]-methyl-L-cysteine (^3H-ZJ24) (GE Healthcare Life Sciences, Pittsburgh, Pa.). Radioactivity of cell pellet was counted by scintillation counter. The concentration required to inhibit 50% of binding was determined (IC50) by GraphPad Prism 3.0.

T3 sequence (Q04609 whole entry): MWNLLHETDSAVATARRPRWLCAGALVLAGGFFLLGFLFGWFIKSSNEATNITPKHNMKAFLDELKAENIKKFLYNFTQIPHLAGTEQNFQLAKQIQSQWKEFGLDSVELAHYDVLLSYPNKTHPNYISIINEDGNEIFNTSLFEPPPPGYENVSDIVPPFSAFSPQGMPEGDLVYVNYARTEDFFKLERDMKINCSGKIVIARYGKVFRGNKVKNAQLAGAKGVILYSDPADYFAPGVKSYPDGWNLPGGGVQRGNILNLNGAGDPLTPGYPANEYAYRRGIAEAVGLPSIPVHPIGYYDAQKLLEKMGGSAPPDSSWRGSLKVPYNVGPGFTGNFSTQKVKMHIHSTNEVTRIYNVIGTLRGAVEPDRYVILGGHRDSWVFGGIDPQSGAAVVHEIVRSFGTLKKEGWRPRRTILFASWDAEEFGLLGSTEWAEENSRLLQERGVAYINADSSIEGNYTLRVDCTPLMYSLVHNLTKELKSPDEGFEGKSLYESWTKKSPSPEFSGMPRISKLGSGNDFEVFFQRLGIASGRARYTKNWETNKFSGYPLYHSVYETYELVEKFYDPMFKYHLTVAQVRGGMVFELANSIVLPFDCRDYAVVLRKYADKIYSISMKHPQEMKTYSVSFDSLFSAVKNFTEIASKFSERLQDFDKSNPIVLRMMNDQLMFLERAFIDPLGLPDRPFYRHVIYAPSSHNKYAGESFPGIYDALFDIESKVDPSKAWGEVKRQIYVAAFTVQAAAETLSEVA

## CC[C@H](C)[C@@H]([C@@H](CC(=O)N1CCC[C@H]1[C@H](OC)[C@@H](C)C(=O)N[C@H](C)[C@@H](O)c1ccccc1)OC)N(C)C(=O)[C@@H](NC(=O)[C@@H](NC)C(C)C)C(C)C [MMAE, monomethyl auristatin E, reference compound] (H-[NMeV]V[Dil][Dolaproine]-X4)
[1]
  maximum tolerated dose (MTD): 700 nmol/kg
[2]; 160 nmol/kg
  time by which all mice died: ≤ 36 days
[2]; 5 doses
  tumor growth: relatively ineffective at inhibiting tumor growth
[3]
  disruption of α-tubulin: non-selective tubulin disruption
[4]; 72 hours, PC3flu IC50 over PC3pip IC50
  selectivity, differential cytotoxicity PC3pip vs PC3flu cells: no selectivity

## CC[C@H](C)[C@@H]([C@H](CC(=O)N1CCC[C@H]1[C@H](OC)[C@@H](C)C(=O)N[C@H](C)[C@@H](O)c1ccccc1)OC)N(C)C(=O)[C@@H](NC(=O)[C@H](C(C)C)N(C)C(=O)OCc1ccc(NC(=O)[C@H](CCCNC(N)=O)NC(=O)[C@@H](NC(=O)CCCCCN2C(=O)CC(SCC(NC(=O)C(CCC(=O)O)NC(=O)C(CCC(=O)O)NC(=O)C(CCC(=O)O)NC(=O)CCCCCNC(=O)C3CCC(CNC(=O)CCC(NC(=O)NC(CCC(=O)O)C(=O)O)C(=O)O)CC3)C(=O)NCCCCCC(=O)NC(CCCCNC(=O)CCCCC[N+]3=C(/C=C/C=C/C=C4/N(C)c5ccc6ccccc6c5C4(C)C)C(C)(C)c4c3ccc3ccccc43)C(N)=O)C2=O)C(C)C)cc1)C(C)C (some centres unmarked) [PSMA-1-VcMMAE-Cy5.5] (I: {ξE-CO-ξγGlu}-[X1][Ahx][ξE][ξE][ξE][ξC][Ahx][ξK](X2)-NH2 / II: V[Cit][PABC][NMeV]V[X3][Dolaproine]-X4; linker I:6-II:N via Hexanoyl(6-succinimido-3yl))
[5]
  stability when incubated with PBS: stable
[6]
  animal survival: all 5 treated mice survived the 90-day experimental period
  body weight loss: no significant body weight loss
  response (no GFP signal): 100%
[1]; male, mouse, in vivo, iv
  MTD at 14 days: 0.48 µmol/kg
[7]
  cure rate: 40%
  weight loss: no weight loss
[8]; every four days, 5 doses
  cure at day 90: 40%
[8]; mouse, in vivo
  body weight loss: No significant body weight loss
[2]; 160 nmol/kg every 4 days, 5 doses, 90 days
  cure rate (no tumors at end of study): 60%
[2]; 5 doses
  tumor growth: effectively inhibited tumor growth as early as day 6
[2]; every 7 days, model not stated
  tumor growth when given every 7 days: greatly inhibited tumor growth
[2]; mouse, in vivo
  lowest dose effectively inhibiting tumor growth: 80 nmol/kg
[3]
  disruption of α-tubulin: selective disruption of tubulin in PC3pip cells but not in PC3flu cells
[9]
  time of peak uptake in PC3pip tumors post-injection: 24 h
[10]
  cleavage in the presence of cathepsin B: degraded rapidly
[11]
  half-life at 2 μM: 19.8 min
[4]; 10 μM of PSMA-1
  potency to kill PC3pip cells in the presence of PSMA-1 ligand: reduced to the same potency to kill PC3flu cells
[4]; 72 hours, CCK-8
  IC50: 0.84 nM and 0.75 nM
[4]; co-incubation with 50 μM E64
  effect of protease inhibitor E64 on cell killing potency: reduced the potency

## CSC[C@H](NC(=O)N[C@@H](CCC(=O)O)C(=O)O)C(=O)O [ZJ24, reference compound]
[12]
  IC50: 11.7 nM
